What was measured:
[1] = biological target: T1, P2X7R (Mus musculus, UniProt Q9Z1M0); test: Entry of ethidium bromide into HT-22 cells; assay type: cell-based; details: HT-22 cells, 60 minutes, 10^−4M ethidium bromide; 1 μM to 1 mM tested
T1 construct: an immortalised mouse hippocampal cell line expressing the endogenous P2X7 gene; endogenous in cells; host or cells: HT-22 mouse hippocampal cell line
T1 sequence (Q9Z1M0 1-595): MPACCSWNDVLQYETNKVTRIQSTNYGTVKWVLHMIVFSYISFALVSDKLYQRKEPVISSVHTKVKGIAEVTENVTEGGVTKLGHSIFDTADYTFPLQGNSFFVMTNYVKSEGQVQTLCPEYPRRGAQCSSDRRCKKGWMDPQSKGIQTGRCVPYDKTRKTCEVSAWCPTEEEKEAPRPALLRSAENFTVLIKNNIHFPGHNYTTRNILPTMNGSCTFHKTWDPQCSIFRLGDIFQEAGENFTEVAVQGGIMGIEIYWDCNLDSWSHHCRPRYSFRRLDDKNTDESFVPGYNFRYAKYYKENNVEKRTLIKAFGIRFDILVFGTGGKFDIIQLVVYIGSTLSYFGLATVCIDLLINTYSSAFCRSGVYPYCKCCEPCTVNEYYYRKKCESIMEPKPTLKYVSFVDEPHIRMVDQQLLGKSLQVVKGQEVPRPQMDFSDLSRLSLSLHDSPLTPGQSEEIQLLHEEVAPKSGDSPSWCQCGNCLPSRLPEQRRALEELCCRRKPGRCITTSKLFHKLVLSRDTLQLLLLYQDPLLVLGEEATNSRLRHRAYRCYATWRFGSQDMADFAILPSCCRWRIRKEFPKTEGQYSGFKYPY
From the text: Yet another method of measuring P2X7R activity involves the entry of ethidium bromide into P2X7R expressing cells. Activation of P2X7R by an agonist allows the entry of ethidium bromide which binds nuclear DNA and emits a fluorescence signal. Alternatively, the propidium dye YOPRO-1 can be substituted for ethidium bromide. An increase in fluorescence can be used as a measure of P2X7 receptor activation. Therefore, the assay can be used to test and quantify the effect of an agent or compound with agonist properties on P2X7R. In the present example, 10^3 HT-22 cells were seeded per well in a 96-well flat bottom microtitre plates and incubated at 37° C./5% CO2 in DMEM medium containing 10% FCS until the cells attached to the culture surface. […] The number of fluorescent cells which have integrated the ethidium bromide to the DNA can then be counted using a fluorescent microscope (Zeiss, Germany). […] Alternatively, ethidium bromide fluorescence can be measured using a Perkin-Elmer fluorescent plate reader (excitation 520 nm, emission 595 nm, slit widths: Ex 15 nm, Em 20 nm). From the readings obtained, a pIC50 figure can be calculated for each candidate agent or compound. […] The specificity of an agonist for P2X7R can be evaluated by pre-incubation of the cells for 60 minutes with 100 μM o-ATP before adding the agonist and ethidium bromide dye.

[2] = system: mice; test: Open field test (locomotor activity); details: 50 μM BzATP, 24 hours after injection, vs vehicle
Description: Locomotor activity was monitored for a period of 30 minutes using a video camera. Overall distance traveled by the animals during the testing period was then analysed by means of VideoMot2 computer software (TSE GmbH, Bad Homburg).

[3] = biological target: T2, human P2X7R (Homo sapiens, UniProt Q99572); test: Calcium entry in HT-22 cells overexpressing human P2X7R (Fluo-4 AM); assay type: cell-based; details: 20 μM BzATP or 50 μM tenidap
T2 construct: expressed in transfected cells
T2 sequence (Q99572 1-595): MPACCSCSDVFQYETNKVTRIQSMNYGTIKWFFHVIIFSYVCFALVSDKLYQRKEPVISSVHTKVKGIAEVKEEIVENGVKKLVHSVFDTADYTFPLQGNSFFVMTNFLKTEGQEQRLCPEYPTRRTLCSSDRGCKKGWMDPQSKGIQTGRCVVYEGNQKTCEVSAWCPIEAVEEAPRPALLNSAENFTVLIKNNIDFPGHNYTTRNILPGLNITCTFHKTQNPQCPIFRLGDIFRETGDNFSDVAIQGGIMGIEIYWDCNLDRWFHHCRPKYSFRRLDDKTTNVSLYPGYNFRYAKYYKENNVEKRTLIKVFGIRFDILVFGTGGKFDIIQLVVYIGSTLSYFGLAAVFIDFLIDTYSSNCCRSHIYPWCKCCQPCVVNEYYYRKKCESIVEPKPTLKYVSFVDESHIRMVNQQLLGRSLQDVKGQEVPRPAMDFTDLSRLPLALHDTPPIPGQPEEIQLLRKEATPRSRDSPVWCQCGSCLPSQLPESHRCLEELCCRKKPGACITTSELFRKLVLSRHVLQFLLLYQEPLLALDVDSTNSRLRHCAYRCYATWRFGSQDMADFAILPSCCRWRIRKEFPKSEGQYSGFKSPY
From the text: Yet another method for identifying P2X7R agonists was devised by generating a immortalised mouse cell line that overexpresses the human P2X7R gene under the control of the human cytomegalovirus (CMV) early promoter/enhancer region. The human P2X7R cDNA was inserted into the pcDNA3.1 vector (Invitrogen) and transfected into the mouse hippocampal cell line HT-22 using Lipofectamine (Invitrogen) according to the manufacturer's specifications. One day after transfection, culture medium containing 500 μg/ml G418 was added to the cells. Resistant clones were separately isolated and cultured 14 days after applying the selection medium.
The agonistic activity of a compound was evaluated by measuring calcium entry in the cells that overexpress the human P2X7R. Cells were cultured in 96 well plates and incubated at 37° C. with 5% C02 DMEM with 10% foetal calf serum (Gibco) until they reached confluence. Cells were then loaded for one hour with 10 μM of Fluo4 AM (Molecular Probes). Fluo-4 AM is a fluorescent dye that binds to intracellular calcium. […] Agonist activity was detected by measuring an increase in calcium influx which results in increased binding to Fluo4 AM and increased fluorescence. Changes in fluorescence signal are measured using a Fluostar Optima plate reader (BMG biotech). […] Thus, both compound stimulated the activity of P2X7R which results in an influx of ions into the cells.

“2′-3′-O-(4-Benzoylbenzoyl)adenosine 5′-triphosphate [BzATP]” was tested, and the “BzATP concentrations that increased the number of fluorescent nuclei” value [1] was “above 100 μM”, the “locomotor activity (overall distance traveled, 30 minutes)” value [2] was “No difference in locomotor activity” and the “calcium influx (Fluo-4 AM fluorescence intensity)” value [3] was “rapid increase in fluorescence intensity”.

— patent publication US7767398B2, “Means and methods for diagnosing and treating affective disorders” (Affectis Pharmaceuticals AG, priority 2003, dated 2010)
